Assay results from patent publication US20070043049A1, “Substituted heterocyclic diarylamine analogues” (Neurogen Corporation, priority 2003, published 2007).

Biological target: T1, human capsaicin receptor (Homo sapiens, UniProt Q8NER1)
T1 construct: pBK-CMV expression construct encoding the full length human capsaicin receptor; expressed in transfected cells
Experiment: Calcium mobilization assay, determination of antagonist activity (Example 6)
Format: cell-based
Settings: 50% decrease in fluorescence response of cells expressing human capsaicin receptor exposed to capsaicin
Method in brief: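 HEK293 cells stably expressing full-length human capsaicin receptor, Fluo-3 AM loaded, preincubated with compound 0.5–6 h at room temperature in KRH buffer pH 7.4. Challenged with capsaicin at its EC50; FLIPR fluorescence read. IC50 is concentration halving the capsaicin-induced calcium response.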

T1 sequence (Q8NER1 whole entry): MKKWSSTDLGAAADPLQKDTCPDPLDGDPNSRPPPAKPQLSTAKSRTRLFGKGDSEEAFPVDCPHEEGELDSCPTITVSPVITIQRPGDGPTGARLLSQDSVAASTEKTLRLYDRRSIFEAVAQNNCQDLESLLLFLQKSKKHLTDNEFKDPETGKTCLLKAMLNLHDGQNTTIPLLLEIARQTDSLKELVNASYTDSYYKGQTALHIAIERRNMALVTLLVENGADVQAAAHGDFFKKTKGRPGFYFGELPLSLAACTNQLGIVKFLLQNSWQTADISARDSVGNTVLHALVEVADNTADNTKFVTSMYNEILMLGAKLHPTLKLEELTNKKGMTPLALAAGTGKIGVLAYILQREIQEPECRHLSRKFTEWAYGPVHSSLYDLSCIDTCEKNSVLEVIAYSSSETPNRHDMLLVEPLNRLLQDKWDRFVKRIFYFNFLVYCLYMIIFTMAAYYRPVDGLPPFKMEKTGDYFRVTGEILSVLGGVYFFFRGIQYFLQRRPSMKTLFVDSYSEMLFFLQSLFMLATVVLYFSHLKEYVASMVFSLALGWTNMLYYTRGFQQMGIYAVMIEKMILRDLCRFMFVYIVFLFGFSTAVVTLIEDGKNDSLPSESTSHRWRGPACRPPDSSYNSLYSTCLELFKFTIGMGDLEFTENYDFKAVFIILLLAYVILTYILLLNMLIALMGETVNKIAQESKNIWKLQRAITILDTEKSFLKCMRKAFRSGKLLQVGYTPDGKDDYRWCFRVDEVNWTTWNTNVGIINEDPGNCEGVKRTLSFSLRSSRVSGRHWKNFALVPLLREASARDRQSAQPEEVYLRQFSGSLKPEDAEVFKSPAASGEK

| Structure (SMILES) | IC50 [nM] |
| --- | --- |
| OCc1nc(Nc2ccc(F)c(F)c2)cc(N2CCN(c3ncccc3C(F)(F)F)CC2)n1 [Compound 110, {4-(3,4-Difluoro-phenylamino)-6-[4-(3-trifluoromethyl-pyridin-2-yl)-piperazin-1-yl]-pyrimidin-2-yl}-methanol] | ≤ 1000 |
| CCCN(CCC)c1nc(Nc2ccc(C(F)(F)F)cc2)nc(N2CCN(c3ncccc3Cl)C[C@H]2C)n1 [Compound 33, 6-[4-(3-Chloro-pyridin-2-yl)-2-methyl-piperazin-1-yl]-N,N-dipropyl-N′-(4-trifluoromethyl-phenyl)-[1,3,5]triazine-2,4-diamine (R)] | ≤ 1000 |
| Clc1cccc(Nc2nc(N3CCOCC3)nc(N3CCN(c4ncccc4Cl)CC3)n2)c1 [Compound 66, (3-Chloro-phenyl)-{4-[4-(3-chloro-pyridin-2-yl)-piperazin-1-yl]-6-morpholin-4-yl-[1,3,5]triazin-2-yl}-amine] | ≤ 1000 |
| CC(C)c1ccc(-c2nc(Nc3ccc(C(F)(F)F)cc3)nc(N3CCN(c4ncccc4Cl)C[C@H]3C)n2)cc1 (stereo in doubt) [Compound 114, [4-[4-(3-Chloro-pyridin-2-yl)-2-methyl-piperazin-1-yl]-6-(4-isopropyl-phenyl)-[1,3,5]triazin-2-yl]-(4-trifluoromethyl-phenyl)-amine] | ≤ 1000 |
| Fc1ccc(Nc2nc(N3CCOCC3)nc(N3CCN(c4ncccc4C(F)(F)F)CC3)n2)cc1F [Compound 69, (3,4-Difluoro-phenyl)-{4-morpholin-4-yl-6-[4-(3-trifluoromethyl-pyridin-2-yl)-piperazin-1-yl]-[1,3,5]triazin-2-yl}-amine] | ≤ 1000 |
| FC(F)(F)c1ccc(Nc2nc(N3CCN(c4ncccc4Cl)CC3)nc(N3CCN(c4ncccc4Cl)CC3)n2)cc1 [Compound 56, {4,6-Bis-[4-(3-chloro-pyridin-2-yl)-piperazin-1-yl]-[1,3,5]triazin-2-yl}-(4-trifluoromethyl-phenyl)-amine] | ≤ 1000 |
| CCCN(C)c1nc(Nc2cccc(F)c2)nc(N2CCN(c3ncccc3Cl)CC2)n1 [Compound 74, 6-[4-(3-Chloro-pyridin-2-yl)-piperazin-1-yl]-N-(3-fluoro-phenyl)-N′-methyl-N′-propyl-[1,3,5]triazine-2,4-diamine] | ≤ 1000 |
| CNc1nc(Nc2ccc(C(F)(F)F)cc2)nc(N2CCN(c3ncccc3Cl)CC2)n1 [Compound 46, 6-[4-(3-Chloro-pyridin-2-yl)-piperazin-1-yl]-N-methyl-N′-(4-trifluoromethyl-phenyl)-[1,3,5]triazine-2,4-diamine] | ≤ 1000 |
| FC(F)(F)c1ccc(Nc2nc(Cl)nc(N3CCN(c4ncccc4Cl)CC3)n2)cc1 [Compound 45, {4-Chloro-6-[4-(3-chloro-pyridin-2-yl)-piperazin-1-yl]-[1,3,5]triazin-2-yl}-(4-trifluoromethyl-phenyl)-amine] | ≤ 1000 |
| Cc1ccc(Nc2nc(N3CCOCC3)nc(N3CCN(c4ncccc4Cl)CC3)n2)cc1 [Compound 65, {4-[4-(3-Chloro-pyridin-2-yl)-piperazin-1-yl]-6-morpholin-4-yl-[1,3,5]triazin-2-yl}-p-tolyl-amine] | ≤ 1000 |
| Fc1cccc(Nc2nc(N3CCCCC3)nc(N3CCN(c4ncccc4Cl)CC3)n2)c1 [Compound 70, {4-[4-(3-Chloro-pyridin-2-yl)-piperazin-1-yl]-6-piperidin-1-yl-[1,3,5]triazin-2-yl}-(3-fluoro-phenyl)-amine] | ≤ 1000 |
| FC(F)(F)c1cccnc1N1CCN(c2cc(N3CCOCC3)nc(Nc3cccc(Cl)c3)n2)CC1 [Compound 84, (3-Chloro-phenyl)-{4-morpholin-4-yl-6-[4-(3-trifluoromethyl-pyridin-2-yl)-piperazin-1-yl]-pyrimidin-2-yl}-amine] | ≤ 1000 |
| CCCNc1nc(Nc2ccc(C(F)(C(F)(F)F)C(F)(F)F)cc2)nc(N2CCN(c3ncccc3Cl)C[C@H]2C)n1 [Compound 25, 6-[4-(3-Chloro-pyridin-2-yl)-2-methyl-piperazin-1-yl]-N-propyl-N′-[4-(1,2,2,2-tetrafluoro-1-trifluoromethyl-ethyl)-phenyl]-[1,3,5]triazine-2,4-diamine (R)] | ≤ 1000 |
| FC(F)(F)c1ccc(Nc2nc(N3CCCCC3)nc(N3CCN(c4ncccc4Cl)CC3)n2)cc1 [Compound 52, {4-[4-(3-Chloro-pyridin-2-yl)-piperazin-1-yl]-6-piperidin-1-yl-[1,3,5]triazin-2-yl}-(4-trifluoromethyl-phenyl)-amine] | ≤ 1000 |
| CC(C)CNc1nc(Nc2ccc(C(F)(C(F)(F)F)C(F)(F)F)cc2)nc(N2CCN(c3ncccc3Cl)C[C@H]2C)n1 [Compound 26, 6-[4-(3-Chloro-pyridin-2-yl)-2-methyl-piperazin-1-yl]-N-isobutyl-N′-[4-(1,2,2,2-tetrafluoro-1-trifluoromethyl-ethyl)-phenyl]-[1,3,5]triazine-2,4-diamine (R)] | ≤ 1000 |
| CC(C)CCNc1nc(Nc2ccc(C(F)(F)F)cc2)nc(N2CCN(c3ncccc3Cl)C[C@H]2C)n1 [Compound 39, 6-[4-(3-Chloro-pyridin-2-yl)-2-methyl-piperazin-1-yl]-N-(3-methyl-butyl)-N′-(4-trifluoromethyl-phenyl)-[1,3,5]triazine-2,4-diamine (R)] | ≤ 1000 |
| COc1ccc(-c2nc(Nc3ccc(C(F)(F)F)cc3)nc(N3CCN(c4ncccc4Cl)C[C@H]3C)n2)c(OC)c1 [Compound 116, [4-[4-(3-Chloro-pyridin-2-yl)-2-methyl-piperazin-1-yl]-6-(2,4-dimethoxy-phenyl)-[1,3,5]triazin-2-yl]-(4-trifluoromethyl-phenyl)-amine] | ≤ 1000 |
| Fc1ccc(Nc2nc(N3CCOCC3)nc(N3CCN(c4ncccc4C(F)(F)F)CC3)n2)cc1 [Compound 59, (4-Fluoro-phenyl)-{4-morpholin-4-yl-6-[4-(3-trifluoromethyl-pyridin-2-yl)-piperazin-1-yl]-[1,3,5]triazin-2-yl}-amine] | ≤ 1000 |
| Fc1ccc(Nc2cc(N3CCOCC3)nc(N3CCN(c4ncccc4C(F)(F)F)CC3)n2)cc1 [Compound 105, (4-Fluoro-phenyl)-{6-morpholin-4-yl-2-[4-(3-trifluoromethyl-pyridin-2-yl)-piperazin-1-yl]-pyrimidin-4-yl}-amine] | ≤ 1000 |
| C[C@@H]1CN(Cc2nc(Nc3ccc(F)c(F)c3)cc(N3CCN(c4ncccc4C(F)(F)F)CC3)n2)C[C@H](C)O1 [Compound 113, (3,4-Difluoro-phenyl)-{2-(2,6-dimethyl-morpholin-4-ylmethyl)-6-[4-(3-trifluoromethyl-pyridin-2-yl)-piperazin-1-yl]-pyrimidin-4-yl}-amine] | ≤ 1000 |
| C[C@@H]1CN(c2ncccc2Cl)CCN1c1cc(Nc2ccc(C(C)(C)C)cc2)ncn1 [Compound 1, (4-tert-Butyl-phenyl)-{6-[4-(3-chloro-pyridin-2-yl)-2-methyl-piperazin-1-yl]-pyrimidin-4-yl}-amine (R)] | ≤ 1000 |

The remaining lines, values ahead:

| IC50 [nM] | Structure (SMILES) |
| --- | --- |
| ≤ 1000 | C[C@@H]1CN(c2ncccc2Cl)CCN1c1nc(Cl)nc(Nc2ccc(C(C)(C)C)cc2)n1 [Compound 2, (4-tert-Butyl-phenyl)-{4-chloro-6-[4-(3-chloro-pyridin-2-yl)-2-methyl-piperazin-1-yl]-[1,3,5]triazin-2-yl}-amine (R)] |
| ≤ 1000 | FC(F)(F)c1cccnc1N1CCN(c2nc(Nc3ccccc3)cc(N3CCCCC3)n2)CC1 [Compound 57, Phenyl-{6-piperidin-1-yl-2-[4-(3-trifluoromethyl-pyridin-2-yl)-piperazin-1-yl]-pyrimidin-4-yl}-amine] |
| ≤ 1000 | CCCCN(C)c1nc(Nc2cccc(F)c2)nc(N2CCN(c3ncccc3Cl)CC2)n1 [Compound 75, N-Butyl-6-[4-(3-chloro-pyridin-2-yl)-piperazin-1-yl]-N′-(3-fluoro-phenyl)-N-methyl-[1,3,5]triazine-2,4-diamine] |
| ≤ 1000 | Fc1cccc(Nc2nc(N3CCOCC3)nc(N3CCN(c4ncccc4C(F)(F)F)CC3)n2)c1 [Compound 58, (3-Fluoro-phenyl)-{4-morpholin-4-yl-6-[4-(3-trifluoromethyl-pyridin-2-yl)-piperazin-1-yl]-[1,3,5]triazin-2-yl}-amine] |
| ≤ 1000 | COc1cccc(Nc2nc(N3CCOCC3)cc(N3CCN(c4ncccc4C(F)(F)F)CC3)n2)c1 [Compound 88, (3-Methoxy-phenyl)-{4-morpholin-4-yl-6-[4-(3-trifluoromethyl-pyridin-2-yl)-piperazin-1-yl]-pyrimidin-2-yl}-amine] |
| ≤ 1000 | CCN(CC)c1nc(Nc2cccc(Cl)c2)nc(N2CCN(c3ncccc3Cl)CC2)n1 [Compound 92, N-(3-Chloro-phenyl)-6-[4-(3-chloro-pyridin-2-yl)-piperazin-1-yl]-N′,N′-diethyl-[1,3,5]triazine-2,4-diamine] |
| ≤ 1000 | CC(C)N(C)c1nc(Nc2ccccc2)nc(N2CCN(c3ncccc3C(F)(F)F)CC2)n1 [Compound 55, N-Isopropyl-N-methyl-N′-phenyl-6-[4-(3-trifluoromethyl-pyridin-2-yl)-piperazin-1-yl]-[1,3,5]triazine-2,4-diamine] |
| ≤ 1000 | CC1CCCN1c1nc(Nc2cccc(F)c2)nc(N2CCN(c3ncccc3Cl)CC2)n1 (stereo not shown) [Compound 77, [4-[4-(3-Chloro-pyridin-2-yl)-piperazin-1-yl]-6-(2-methyl-pyrrolidin-1-yl)-[1,3,5]triazin-2-yl]-(3-fluoro-phenyl)-amine] |
| ≤ 1000 | C[C@@H]1CN(c2ncccc2Cl)CCN1c1nc(Cl)nc(Nc2ccc(C(F)(C(F)(F)F)C(F)(F)F)cc2)n1 [Compound 24, {4-Chloro-6-[4-(3-chloro-pyridin-2-yl)-2-methyl-piperazin-1-yl]-[1,3,5]triazin-2-yl}-[4-(1,2,2,2-tetrafluoro-1-trifluoromethyl-ethyl)-phenyl]-amine (R)] |
| ≤ 1000 | C[C@@H]1CN(c2ncccc2Cl)CCN1c1nc(NCCCc2ccccc2)nc(Nc2ccc(C(F)(F)F)cc2)n1 [Compound 41, 6-[4-(3-Chloro-pyridin-2-yl)-2-methyl-piperazin-1-yl]-N-(3-phenyl-propyl)-N′-(4-trifluoromethyl-phenyl)-[1,3,5]triazine-2,4-diamine (R)] |
